According to publication PMC10619976, “Structural basis of EHEP-mediated offense against phlorotannin-induced defense from brown algae to protect akuBGL activity” (eLife, 2023):

Molecular target: T1, akuBGL (110 kDa β-glucosidase) (Aplysia kurodai, UniProt A0A1V1FXL2)
T1 construct: gene ApBGL; native, purified from digestive fluid; signal peptide M1-D25 removed; 110 kDa; two GH1 domains (L26-T494, D513-P978); N-glycosylated at N113, N212, N645; precursor ends at M994
Test: HPLC or absorbance at […] nm of o-nitrophenol
Type: biochemical
Conditions: 2.5 mM ONPG, 49 nM akuBGL, pH 5.5, 100 mM NaCl, 10 mM CaCl2, 37 °C, 10 min

T1 sequence (A0A1V1FXL2 entry or part of it): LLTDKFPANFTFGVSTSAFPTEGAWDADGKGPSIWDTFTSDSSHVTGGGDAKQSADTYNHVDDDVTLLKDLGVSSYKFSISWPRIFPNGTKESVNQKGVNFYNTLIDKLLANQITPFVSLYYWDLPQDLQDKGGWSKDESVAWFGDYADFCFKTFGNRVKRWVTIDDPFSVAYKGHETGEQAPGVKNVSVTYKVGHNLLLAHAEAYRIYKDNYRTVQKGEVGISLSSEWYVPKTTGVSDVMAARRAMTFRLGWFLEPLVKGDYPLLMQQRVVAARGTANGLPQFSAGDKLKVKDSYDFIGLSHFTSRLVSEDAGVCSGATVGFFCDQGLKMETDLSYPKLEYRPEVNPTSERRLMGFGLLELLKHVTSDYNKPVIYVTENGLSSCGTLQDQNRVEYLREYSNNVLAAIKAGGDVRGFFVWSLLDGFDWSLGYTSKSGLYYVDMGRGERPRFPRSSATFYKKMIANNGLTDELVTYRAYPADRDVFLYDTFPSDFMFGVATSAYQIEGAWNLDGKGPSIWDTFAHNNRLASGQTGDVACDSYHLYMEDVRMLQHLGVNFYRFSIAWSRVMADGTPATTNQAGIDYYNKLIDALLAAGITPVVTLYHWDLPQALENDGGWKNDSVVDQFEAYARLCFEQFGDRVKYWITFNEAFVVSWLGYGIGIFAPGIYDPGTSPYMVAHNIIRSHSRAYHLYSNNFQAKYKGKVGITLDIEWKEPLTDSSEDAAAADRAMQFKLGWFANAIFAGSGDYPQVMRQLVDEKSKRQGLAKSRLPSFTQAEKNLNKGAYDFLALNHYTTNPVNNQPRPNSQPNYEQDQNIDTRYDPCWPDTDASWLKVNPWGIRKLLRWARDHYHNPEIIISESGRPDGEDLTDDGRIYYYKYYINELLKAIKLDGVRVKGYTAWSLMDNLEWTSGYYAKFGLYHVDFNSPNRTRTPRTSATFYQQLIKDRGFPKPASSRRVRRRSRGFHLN

Q: O=[N+]([O-])c1ccccc1O[C@@H]1O[C@H](CO)[C@H](O)[C@H](O)[C@H]1O [ortho-nitrophenyl-β-galactoside] was tested. Which “HPLC or absorbance at 420 nm of o-nitrophenol” value did it give?
A: Ortho-nitrophenyl-β-galactoside (ONPG) was used as a substrate to measure akuBGL activity
